Experimental data: PubChem BioAssay (NCI)
“And” between values parts separate entries of the source, which are not always exact repeats. Identical values can stand only once.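 96-well plates; 48 h exposure; 5 concentrations. Endpoints by linear interpolation between flanking doses. Not reached: highest tested concentration assigned. The concentration for 50% growth inhibition is given as GI50. TGI: total growth inhibition.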

How the values were obtained:
P388/ADR leukemia = assay: NCI tumour cell line growth inhibition, 48 h
P388 leukemia = assay: NCI tumour cell line growth inhibition, 48 h

With `CSC1SCC2C(=O)N(C)C(C(C)C)C(=O)OCC(NC(=O)c3cnc4ccccc4n3)C(=O)NC(C)C(=O)N(C)C1C(=O)N(C)C(C(C)C)C(=O)OCC(NC(=O)c1cnc3ccccc3n1)C(=O)NC(C)C(=O)N2C` (stereo not drawn) the GI50 (P388/ADR leukemia) was 7.5 nM, the TGI (P388/ADR leukemia) was 49 nM and 34.8 nM and the GI50 (P388 leukemia) was 0.00499 nM.
